# In PMC3325965, “Structural Basis of the Chromodomain of Cbx3 Bound to Methylated Peptides from Histone H1 and G9a” (PLoS ONE, 2012):
# pKd: −log10 of the molar value. Square brackets hold non-standard residues; d marks the D form. Peptide text beside a SMILES is read from it. Lys(Me3) = C[N+](C)(C)CCCC[C@H](N)C(=O)O; Lys(Me2) = CN(C)CCCC[C@H](N)C(=O)O; Lys(Me) = CNCCCC[C@H](N)C(=O)O
# Target: T1, human Cbx3 chromodomain (Homo sapiens, UniProt Q13185)
# T1 construct: The chromodomain of Cbx3 (29–86) was subcloned into a pET-28a-MHL vector; His tag (TEV-cleavable, pET-28a-MHL) (N, cleaved yes); made in house
# Test: Isothermal titration calorimetry (ITC) of methylated peptides binding to Cbx3 chromodomain
# Design: key to Kd peptide: N/B: No binding was detected
# Conditions: Cbx3 chromodomain (residues 29–86), 60 µl of peptide solution (1–2 mM) injected into cell with 40–100 mM protein, 20 mM Tris–HCl, pH 7.5, 150 mM NaCl, one-site binding model
# Text: Chromodomain has been identified to be a methyl-lysine binding motif involved in transcription regulation, [28]. Many chromodomain-containing proteins, such as HP1 proteins and Polycomb group proteins, were reported to recognize methylated histone tails, [13], [17], [29]. Besides methylated histone H3K9, Cbx3, also known as HP1γ, can also bind to methylated Lys26 of histone H1 and methylated Lys185 of G9a, [22], [23]. To elucidate the binding affinity of Cbx3 chromodomain to these two methylated sites, isothermal titration calorimetry (ITC) assay was performed using histone H1K26 and G9aK185 peptides bearing different lysine methylation states as substrates. […] (Table 1).
# Isothermal titration calorimetry measurements were performed as reported previously. Experiments were carried out by injecting 60 µl of peptide solution (1–2 mM) into a sample cell containing […] protein of Cbx3 chromodomain in 20 mM Tris–HCl, pH 7.5, 150 mM NaCl. The ITC measurements were fit to a one-site binding model using Origin Software (MicroCal Inc.)
# T1 sequence (Q13185 29-86): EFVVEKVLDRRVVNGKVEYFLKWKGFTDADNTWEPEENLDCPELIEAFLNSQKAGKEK
Molecule,pKd,Kd peptide,further results
CNCCCC[C@H](NC(=O)[C@H](CCCNC(=N)N)NC(=O)[C@H](C)NC(=O)[C@H](CCCNC(=N)N)NC(=O)[C@H](Cc1c[nH]cn1)NC(=O)[C@@H](NC(=O)[C@@H](N)CCCCN)C(C)C)C(=O)N[C@H](C(=O)N[C@@H](CCSC)C(=O)N[C@@H](CO)C(=O)N[C@@H](CCCCN)C(=O)N1CCC[C@H]1C(=O)O)[C@@H](C)O [G9a(179–190) me1] (H-KVHRAR[Lys(Me)]TMSKP-OH),4.55,–,–
CSCC[C@H](NC(=O)[C@@H](NC(=O)[C@H](CCCCN(C)C)NC(=O)[C@H](CCCNC(=N)N)NC(=O)[C@H](C)NC(=O)[C@H](CCCNC(=N)N)NC(=O)[C@H](Cc1c[nH]cn1)NC(=O)[C@@H](NC(=O)[C@@H](N)CCCCN)C(C)C)[C@@H](C)O)C(=O)N[C@@H](CO)C(=O)N[C@@H](CCCCN)C(=O)N1CCC[C@H]1C(=O)O [G9a(179–190) me2] (H-KVHRAR[Lys(Me2)]TMSKP-OH),5.05,–,–
CSCC[C@H](NC(=O)[C@@H](NC(=O)[C@H](CCCC[N+](C)(C)C)NC(=O)[C@H](CCCNC(=N)N)NC(=O)[C@H](C)NC(=O)[C@H](CCCNC(=N)N)NC(=O)[C@H](Cc1c[nH]cn1)NC(=O)[C@@H](NC(=O)[C@@H](N)CCCCN)C(C)C)[C@@H](C)O)C(=O)N[C@@H](CO)C(=O)N[C@@H](CCCCN)C(=O)N1CCC[C@H]1C(=O)O [G9a(179–190) me3] (H-KVHRAR[Lys(Me3)]TMSKP-OH),4.85,–,–
"KVHRARK^185TMSKP [G9a(179–190) unmodified, histone methyltransferase G9a peptide, residues 179–190, without modification]",–,N/B,Kd peptide (listed as G9aK185): did not exhibit detectable binding

# Further lines, with some results ahead:
pKd,Kd peptide,Molecule,further results
–,N/B,"TPVKKKARK^26SAG [H1.4(18–29) me1, histone H1.4 peptide, residues 18–29, mono-methylated at Lys26]",–
–,N/B ^*,"TPVKKKARK^26SAG [H1.4(18–29) unmodified, histone H1.4 peptide, residues 18–29, without modification]",Kd peptide (listed as H1K26): did not exhibit detectable binding
